PubChem BioAssay AID270 (DTP/NCI, 2004)
Where “and” joins values, the source holds several entries; their conditions need not be identical. Equal entries are not always repeated. Inconclusive results are not listed.

Test system: BDF1 mice, s.c. Lewis lung carcinoma, T/C %
Test: NCI In Vivo Anticancer Drug Screen. Data for tumor model Lewis Lung Carcinoma (subcutaneous) in B6D2F1 (BDF1) mice
Method in brief: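 First, mice carry a transplantable tumor. Next, groups receive either compound or vehicle. Finally, survival or tumor dimensions in the dosed animals are divided by the corresponding control figure.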

[1] = endpoint: mean tumor weight, dose: 50.0 mg/kg/injection, schedule: Q01DX011 (ip), vehicle: other, higher = larger tumour
[2] = endpoint: mean tumor weight, dose: 100.0 mg/kg/injection, schedule: Q01DX011 (ip), vehicle: other, higher = larger tumour
[3] = endpoint: mean tumor weight, dose: 60.0 mg/kg/injection, schedule: Q01DX011 (ip), vehicle: other, higher = larger tumour
[4] = endpoint: mean tumor weight, dose: 300.0 mg/kg/injection, schedule: Q01DX011 (ip), vehicle: saline, higher = larger tumour

With `COc1cc2c3c(c1)/C(=N\Nc1ccccc1)CCN3CCC2` the T/C (endpoint: median survival time, dose: 0.78 mg/kg/injection, schedule: Q01DX009 (ip), vehicle: DMSO, higher = longer survival) was 112 % of control and the T/C (endpoint: median survival time, dose: 3.0 mg/kg/injection, schedule: Q01DX009 (ip), vehicle: DMSO, higher = longer survival) was 124 % of control.
`N/N=C(\N)c1nn(C2OC(CO)C(O)C2O)c2ncnc(N)c12` (centres undefined) was tested, and the T/C (endpoint: median survival time, dose: 40.0 mg/kg/injection, schedule: Q01DX005 (ip), vehicle: saline, higher = longer survival) was 124 % of control and the T/C (endpoint: median survival time, dose: 80.0 mg/kg/injection, schedule: Q01DX005 (ip), vehicle: saline, higher = longer survival) was 104 % of control.
For `OC(CCl)CN1CC[N+]2(CC1)CC[N+]1(CCN(CC(O)CCl)CC1)CC2` (centres undefined), the T/C (endpoint: median survival time, dose: 40.0 mg/kg/injection, schedule: Q01DX009 (ip), vehicle: saline, higher = longer survival) was 107 % of control and 112 % of control, the T/C (endpoint: median survival time, dose: 80.0 mg/kg/injection, schedule: Q01DX009 (ip), vehicle: saline, higher = longer survival) was 114 % of control and 121 % of control and the T/C (endpoint: median survival time, dose: 160.0 mg/kg/injection, schedule: Q01DX009 (ip), vehicle: saline, higher = longer survival) was 120 % of control. The T/C (endpoint: median survival time, dose: 320.0 mg/kg/injection, schedule: Q01DX009 (ip), vehicle: saline, higher = longer survival) was 150 % of control and 157 % of control.
For `N=C(N)NC(=N)Nc1ccc(NC(=O)Nc2ccc(Nc3c4ccccc4nc4cc([N+](=O)[O-])ccc34)cc2)cc1`, the T/C (endpoint: median survival time, dose: 1.56 mg/kg/injection, schedule: Q01DX009 (ip), vehicle: water, higher = longer survival) was 111 % of control, the T/C (endpoint: median survival time, dose: 6.25 mg/kg/injection, schedule: Q01DX009 (ip), vehicle: water, higher = longer survival) was 108 % of control and the T/C (endpoint: median survival time, dose: 12.5 mg/kg/injection, schedule: Q01DX009 (ip), vehicle: water, higher = longer survival) was 112 % of control. For the same molecule, the T/C (endpoint: median survival time, dose: 25.0 mg/kg/injection, schedule: Q01DX009 (ip), vehicle: water, higher = longer survival) was 103 % of control and the T/C (endpoint: median survival time, dose: 50.0 mg/kg/injection, schedule: Q01DX009 (ip), vehicle: water, higher = longer survival) was 112 % of control.
`COC1N(C2CC(O)C(CO)O2)C(=O)NC(=O)C1(F)Br` (centres undefined) was tested, and the T/C (endpoint: mean tumor weight, dose: 8.8 mg/kg/injection, schedule: Q01DX011 (ip), vehicle: saline, higher = larger tumour) was 45 % of control and 51 % of control and 55 % of control, the T/C (endpoint: mean tumor weight, dose: 13.3 mg/kg/injection, schedule: Q01DX011 (ip), vehicle: saline, higher = larger tumour) was 36 % of control and 56 % of control and 57 % of control and the T/C (endpoint: mean tumor weight, dose: 20.0 mg/kg/injection, schedule: Q01DX011 (ip), vehicle: saline, higher = larger tumour) was 13 % of control and 22 % of control. The T/C (endpoint: median survival time, dose: 1.56 mg/kg/injection, schedule: Q01DX009 (ip), vehicle: saline, higher = longer survival) was 110 % of control and 117 % of control, the T/C (endpoint: median survival time, dose: 3.12 mg/kg/injection, schedule: Q01DX009 (ip), vehicle: saline, higher = longer survival) was 110 % of control and the T/C (endpoint: median survival time, dose: 3.13 mg/kg/injection, schedule: Q01DX009 (ip), vehicle: saline, higher = longer survival) was 113 % of control. For the same molecule, the T/C (endpoint: median survival time, dose: 6.25 mg/kg/injection, schedule: Q01DX009 (ip), vehicle: saline, higher = longer survival) was 109 % of control and 277 % of control and the T/C (endpoint: median survival time, dose: 12.5 mg/kg/injection, schedule: Q01DX009 (ip), vehicle: saline, higher = longer survival) was 279 % of control.
In the case of `S=c1c2[nH]cnc2ncn1CCSC1=NC=NC2=NC=NC21` (centres undefined), the T/C [1] is reported as 96 % of control, the T/C [2] is reported as 53 % of control and the T/C (endpoint: mean tumor weight, dose: 200.0 mg/kg/injection, schedule: Q01DX011 (ip), vehicle: other, higher = larger tumour) is reported as 61 % of control. For the same molecule, the T/C (endpoint: mean tumor weight, dose: 400.0 mg/kg/injection, schedule: Q01DX011 (ip), vehicle: other, higher = larger tumour) was 37 % of control.
In the case of `CC(=O)OC(C)(C)/C=C/C(=O)[C@](C)(O)[C@H]1[C@H](O)C[C@@]2(C)[C@@H]3CC=C4[C@@H](C=C(O)C(=O)C4(C)C)[C@]3(C)C(=O)C[C@]12C`, the T/C (endpoint: mean tumor weight, dose: 0.4 mg/kg/injection, schedule: Q01DX011 (ip), vehicle: carboxymethylcellulose (CMC), higher = larger tumour) is reported as 59 % of control, the T/C (endpoint: mean tumor weight, dose: 0.8 mg/kg/injection, schedule: Q01DX011 (ip), vehicle: carboxymethylcellulose (CMC), higher = larger tumour) is reported as 78 % of control and the T/C (endpoint: mean tumor weight, dose: 1.6 mg/kg/injection, schedule: Q01DX011 (ip), vehicle: carboxymethylcellulose (CMC), higher = larger tumour) is reported as 26 % of control. For the same molecule, the T/C (endpoint: mean tumor weight, dose: 3.2 mg/kg/injection, schedule: Q01DX011 (ip), vehicle: carboxymethylcellulose (CMC), higher = larger tumour) was 27 % of control, the T/C (endpoint: mean tumor weight, dose: 3.2 mg/kg/injection, schedule: Q01DX011 (ip), vehicle: saline, higher = larger tumour) was 58 % of control and the T/C (endpoint: mean tumor weight, dose: 6.4 mg/kg/injection, schedule: Q01DX011 (ip), vehicle: saline, higher = larger tumour) was 33 % of control. For the same molecule, the T/C (endpoint: mean tumor weight, dose: 12.8 mg/kg/injection, schedule: Q01DX011 (ip), vehicle: saline, higher = larger tumour) was 52 % of control.
`c1ccc(CSc2ncnc3nc[nH]c23)nc1` was tested, and the T/C (endpoint: mean tumor weight, dose: 25.0 mg/kg/injection, schedule: Q01DX011 (ip), vehicle: other, higher = larger tumour) was 59 % of control, the T/C [1] was 109 % of control and the T/C [2] was 63 % of control.
For `N=C(N)N`, the T/C (endpoint: mean tumor weight, dose: 100.0 mg/kg/injection, schedule: Q01DX011 (ip), vehicle: saline, higher = larger tumour) was 114 % of control and the T/C (endpoint: mean tumor weight, dose: 200.0 mg/kg/injection, schedule: Q01DX011 (ip), vehicle: saline, higher = larger tumour) was 89 % of control.
With `CC1C[N-]CC(C)C1.CC1C[N-]CC(C)C1.CC1C[N-]CC(C)C1.CC1C[N-]CC(C)C1.[Cl][Rh][Cl]` (centres undefined) the T/C (endpoint: median survival time, dose: 1.5 mg/kg/injection, schedule: Q01DX009 (ip), vehicle: saline, higher = longer survival) was 104 % of control, the T/C (endpoint: median survival time, dose: 3.0 mg/kg/injection, schedule: Q01DX009 (ip), vehicle: saline, higher = longer survival) was 114 % of control and the T/C (endpoint: median survival time, dose: 6.0 mg/kg/injection, schedule: Q01DX009 (ip), vehicle: saline, higher = longer survival) was 105 % of control.
In the case of `CC(C)=CC1C(C(=O)OCc2ccc(C)cc2C)C1(C)C` (centres undefined), the T/C (endpoint: median survival time, dose: 12.5 mg/kg/injection, schedule: Q01DX009 (ip), vehicle: saline with Tween-80, higher = longer survival) is reported as 93 % of control, the T/C (endpoint: median survival time, dose: 25.0 mg/kg/injection, schedule: Q01DX009 (ip), vehicle: saline with Tween-80, higher = longer survival) is reported as 104 % of control and the T/C (endpoint: median survival time, dose: 50.0 mg/kg/injection, schedule: Q01DX009 (ip), vehicle: saline with Tween-80, higher = longer survival) is reported as 89 % of control. The T/C (endpoint: median survival time, dose: 100.0 mg/kg/injection, schedule: Q01DX009 (ip), vehicle: saline with Tween-80, higher = longer survival) was 95 % of control and the T/C (endpoint: median survival time, dose: 200.0 mg/kg/injection, schedule: Q01DX009 (ip), vehicle: saline with Tween-80, higher = longer survival) was 98 % of control.
In the case of `CCCCCCC(=O)NC1=C(N2CC2)C(=O)C(NC(=O)CCCCCC)=C(N2CC2)C1=O`, the T/C (endpoint: mean tumor weight, dose: 3.8 mg/kg/injection, schedule: Q01DX011 (ip), vehicle: other, higher = larger tumour) is reported as 101 % of control, the T/C (endpoint: mean tumor weight, dose: 7.5 mg/kg/injection, schedule: Q01DX011 (ip), vehicle: other, higher = larger tumour) is reported as 81 % of control and the T/C (endpoint: mean tumor weight, dose: 30.0 mg/kg/injection, schedule: Q01DX011 (ip), vehicle: other, higher = larger tumour) is reported as 78 % of control. For the same molecule, the T/C [3] was 30 % of control.
In the case of `CN(C)CCCN1c2ccccc2Sc2ccc(C(F)(F)F)cc21`, the T/C (endpoint: mean tumor weight, dose: 12.0 mg/kg/injection, schedule: Q01DX011 (ip), vehicle: saline, higher = larger tumour) is reported as 81 % of control and the T/C (endpoint: mean tumor weight, dose: 25.0 mg/kg/injection, schedule: Q01DX011 (ip), vehicle: saline, higher = larger tumour) is reported as 44 % of control.
In the case of `ClCCn1cnc2c(SCc3ccccc3Cl)ncnc21`, the T/C [3] is reported as 75 % of control, the T/C (endpoint: mean tumor weight, dose: 120.0 mg/kg/injection, schedule: Q01DX011 (ip), vehicle: other, higher = larger tumour) is reported as 58 % of control and the T/C (endpoint: mean tumor weight, dose: 240.0 mg/kg/injection, schedule: Q01DX011 (ip), vehicle: other, higher = larger tumour) is reported as 64 % of control.
For `CCn1c2ccccc2c2cc(NC(=O)N(CCCl)N=O)ccc21`, the T/C (endpoint: median survival time, dose: 50.0 mg/kg/injection, schedule: Q01DX001 (ip), vehicle: saline with Tween-80, higher = longer survival) was 89 % of control and the T/C (endpoint: median survival time, dose: 100.0 mg/kg/injection, schedule: Q01DX001 (ip), vehicle: saline with Tween-80, higher = longer survival) was 96 % of control.
With `Nc1ccc(O)cc1` the T/C (endpoint: mean tumor weight, dose: 37.5 mg/kg/injection, schedule: Q01DX011 (ip), vehicle: saline, higher = larger tumour) was 96 % of control and the T/C [4] was 26 % of control.
For `C[C@H](N)C(=O)N[C@@H]1[C@H]2C(=C(O)C[C@@H](O)[C@@H]2O)C(=O)O[C@@H]1C`, the T/C [4] was 83 % of control, the T/C (endpoint: mean tumor weight, dose: 600.0 mg/kg/injection, schedule: Q01DX011 (ip), vehicle: saline, higher = larger tumour) was 60 % of control and the T/C (endpoint: mean tumor weight, dose: 1200.0 mg/kg/injection, schedule: Q01DX011 (ip), vehicle: saline, higher = larger tumour) was 89 % of control.
For `CCOP(=O)(CC(=O)NC(CC(=O)OC)C(=O)OC)OCC` (centres undefined), the T/C (endpoint: median survival time, dose: 50.0 mg/kg/injection, schedule: Q01DX004 (ip), vehicle: saline, higher = longer survival) was 110 % of control, the T/C (endpoint: median survival time, dose: 100.0 mg/kg/injection, schedule: Q01DX004 (ip), vehicle: saline, higher = longer survival) was 120 % of control and the T/C (endpoint: median survival time, dose: 200.0 mg/kg/injection, schedule: Q01DX004 (ip), vehicle: saline, higher = longer survival) was 116 % of control. For the same molecule, the T/C (endpoint: median survival time, dose: 800.0 mg/kg/injection, schedule: Q01DX004 (ip), vehicle: saline, higher = longer survival) was 124 % of control and the T/C (endpoint: median survival time, dose: 1600.0 mg/kg/injection, schedule: Q01DX004 (ip), vehicle: saline, higher = longer survival) was 124 % of control.
In the case of `CC[CH2][Pb]([CH2]CC)([CH2]CC)[N]1C(=O)c2ccccc2C1=O`, the T/C (endpoint: median survival time, dose: 3.13 mg/kg/injection, schedule: Q01DX009 (ip), vehicle: Klucel (hydroxypropylcellulose) (HPC), higher = longer survival) is reported as 96 % of control, the T/C (endpoint: median survival time, dose: 6.25 mg/kg/injection, schedule: Q01DX009 (ip), vehicle: Klucel (hydroxypropylcellulose) (HPC), higher = longer survival) is reported as 87 % of control and the T/C (endpoint: median survival time, dose: 12.5 mg/kg/injection, schedule: Q01DX009 (ip), vehicle: Klucel (hydroxypropylcellulose) (HPC), higher = longer survival) is reported as 102 % of control.
